In one series the test system is HBV. As to the kind of experiment: Determination of HBV DNA from the supernatants of HepAD38 cells (anti-HBV activity). In kind it is cell-based, hepatitis B virus. Conditions: Hepatitis B virus, 144 h; HBV DNA in HepAD38 supernatant, day 6, qPCR; read-out: Cell Activity (EC50). On the procedure:
Determination of HBV DNA from the Supernatants of HepAD38 Cells
The anti-HBV activity was analysed in the stable transfected cell line HepAD38, which has been described to secrete high levels of HBV virion particles (Ladner et al., 1997). In brief, HepAD38 cells were cultured at 37° C. at 5% CO2 and 95% humidity in 200 μl maintenance medium, which was Dulbecco's modified Eagle's medium/Nutrient Mixture F-12 (Gibco, Karlsruhe), 10% fetal bovine serum (PAN Biotech Aidenbach) supplemented with 50 μg/ml penicillin/streptomycin (Gibco, Karlsruhe), 2 mM L-glutamine (PAN Biotech, Aidenbach), 400 μg/ml G418 (AppliChem, Darmstadt) and 0.3 μg/ml tetracycline. Cells were subcultured once a week in a 1:5 ratio, but were usually not passaged more than ten times. For the assay 60,000 cells were seeded in maintenance medium without any tetracycline into each well of a 96-well plate and treated with serial half-log dilutions of test compound. To minimize edge effects the outer 36 wells of the plate were not used but were filled with assay medium. On each assay plate six wells for the virus control (untreated HepAD38 cells) and six wells for the cell control (HepAD38 cells treated with 0.3 μg/ml tetracycline) were allocated, respectively. In addition, one plate set with reference inhibitors like BAY 41-4109, entecavir, and lamivudine instead of screening compounds were prepared in each experiment. In general, experiments were performed thrice in triplicates. At day 6 HBV DNA from 100 μl filtrated cell culture supernatant (AcroPrep Advance 96 Filter Plate, […] Supor membran, PALL GmbH, Dreieich) was automatically purified on the MagNa Pure LC instrument using the MagNA Pure 96 DNA and Viral NA Small Volume Kit (Roche Diagnostics, Mannheim) according to the instructions of the manufacturer. EC50 values were calculated from relative copy numbers of HBV DNA In brief, 5 μl of the 100 μl eluate containing HBV DNA were subjected to PCR LC480 Probes Master Kit (Roche) together with 1 μM antisense primer […], 0.5 μM sense primer […], 0.3 μM hybprobes […]-FL and LC640-[…]-PH (TIBMoBiol, Berlin) to a final volume of 12.5 μl. The PCR was performed on the Light Cycler 480 real time system (Roche Diagnostics, Mannheim) using the following protocol: Pre-incubation for 1 min at 95° C., amplification: 40 cycles×(10 sec at 95° C., 50 sec at 60° C., 1 sec at 70° C.), cooling for 10 sec at 40° C. Viral load was quantitated against known standards using HBV plasmid DNA of pCH-9/3091 (Nassal et al., 1990, Cell 63: 1357-1363) and the LightCycler 480 SW 1.5 software (Roche Diagnostics, Mannheim) and EC50 values were calculated using non-linear regression with GraphPad Prism 6 (GraphPad Software Inc., La Jolla, USA).

Series [1] can be described thus: Cell viability assay (AlamarBlue) in HepAD38 cells. As to conditions: human.

In the case of `C[C@@H]1CCC[C@@H](C)N1C(=O)c1n[nH]c2c1CN(C(=O)c1cc3ccccc3[nH]1)CC2` [Example 146, 2-{3-[(2R,6R)-2,6-dimethylpiperidine-1-carbonyl]-1H,4H,5H,6H,7H-pyrazolo[4,3-c]pyridine-5-carbonyl}-1H-indole], the half-maximal effective concentration (EC50) in the series with HBV is 1 to 25 µM. The CC50 at 6 days in series [1] is over 10 µM.

With `O=C(c1cc2ccccc2[nH]1)N1CCc2[nH]nc(C(=O)N3CC[C@@H](F)C3)c2C1` [Example 225, 2-{3-[(3R)-3-fluoropyrrolidine-1-carbonyl]-1H,4H,5H,6H,7H-pyrazolo[4,3-c]pyridine-5-carbonyl}-1H-indole], the EC50 in the series on HBV is under 1 µM. Further, in series [1], the CC50 at 6 days is over 10 µM.

Regarding `N[C@@H]1CCN(C(=O)c2[nH]nc3c2CN(C(=O)c2cc4ccccc4[nH]2)CC3)C1` [Example 259, (3R)-1-[5-(1H-indole-2-carbonyl)-2H,4H,5H,6H,7H-pyrazolo[4,3-c]pyridine-3-carbonyl]pyrrolidin-3-amine], the concentration for a half-maximal effect (EC50) in the series on HBV fell in the range of 1 to 25 µM. The molecule further returned a cytotoxic concentration (CC50) at 6 days in series [1] of over 10 µM.

`CC(=O)N1CCN(C(=O)c2[nH]nc3c2CN(C(=O)c2cc4ccccc4[nH]2)CC3)C2(CC2)C1` [Example 236, 1-{4-[5-(1H-indole-2-carbonyl)-2H,4H,5H,6H,7H-pyrazolo[4,3-c]pyridine-3-carbonyl]-4,7-diazaspiro[2.5]octan-7-yl}ethan-1-one]: the 50% effective concentration (EC50) with HBV was 1 to 25 µM. In series [1], this molecule displayed a cytotoxic concentration (CC50) at 6 days of over 10 µM.

`CN(C(=O)c1n[nH]c2c1CN(C(=O)c1cc3ccccc3[nH]1)CC2)C1(CCC(N)=O)CC1` [Example 237, N-[1-(2-carbamoylethyl)cyclopropyl]-5-(1H-indole-2-carbonyl)-N-methyl-1H,4H,5H,6H,7H-pyrazolo[4,3-c]pyridine-3-carboxamide]: the concentration giving a half-maximal response (EC50) in the series on HBV is under 100 µM. Besides, in series [1], the CC50 at 6 days is over 10 µM.

Take `CC1c2c(-c3cscn3)n[nH]c2CCN1C(=O)c1cc2c(Cl)cc(F)cc2[nH]1` (stereo not shown) [Example 35, 4-chloro-6-fluoro-2-[4-methyl-3-(1,3-thiazol-4-yl)-1H,4H,5H,6H,7H-pyrazolo[4,3-c]pyridine-5-carbonyl]-1H-indole]: the concentration for a half-maximal effect (EC50) with HBV is under 1 µM. For the same molecule, the cytotoxic concentration (CC50) at 6 days in series [1] was over 32 µM.

With `O=C(c1cc2cc(F)ccc2[nH]1)N1CCc2n[nH]c(C3CCC3)c2C1` [Example 394, 2-{3-cyclobutyl-2H,4H,5H,6H,7H-pyrazolo[4,3-c]pyridine-5-carbonyl}-5-fluoro-1H-indole], in the series on HBV, the 50% effective concentration (EC50) is under 1 µM. For the same molecule, in series [1], the CC50 at 6 days was over 10 µM.

Turning to `O=C(c1cc2ccccc2[nH]1)N1CCc2[nH]nc(C(=O)N3CC(F)(F)C3)c2C1` [Example 222, 2-[3-(3,3-difluoroazetidine-1-carbonyl)-1H,4H,5H,6H,7H-pyrazolo[4,3-c]pyridine-5-carbonyl]-1H-indole], the EC50 in the series on HBV is under 1 µM. Also, the CC50 at 6 days in series [1] is over 10 µM.

As for `Cc1noc(C2(N(C)C(=O)c3[nH]nc4c3CN(C(=O)c3cc5ccccc5[nH]3)CC4)CC2)n1` [Example 398, 5-(1H-indole-2-carbonyl)-N-methyl-N-[1-(3-methyl-1,2,4-oxadiazol-5-yl)cyclopropyl]-2H,4H,5H,6H,7H-pyrazolo[4,3-c]pyridine-3-carboxamide], in the series with HBV, the EC50 is under 1 µM. This molecule had a half-maximal cytotoxic concentration (CC50) at 6 days in series [1] of over 10 µM.

Take `O=C(c1cc2ccccc2[nH]1)N1CCc2[nH]nc(C(=O)N3CCCC34CCC4)c2C1` [Example 151, 2-(3-{5-azaspiro[3.4]octane-5-carbonyl}-1H,4H,5H,6H,7H-pyrazolo[4,3-c]pyridine-5-carbonyl)-1H-indole]: the EC50 in the series on HBV lay within 1 to 25 µM. In series [1], this molecule registered a CC50 at 6 days of over 10 µM.

For `O=C(c1cc2c(Cl)c(F)ccc2[nH]1)N1CCc2n[nH]c(-c3cscn3)c2C1` [Example 13, 4-chloro-5-fluoro-2-[3-(1,3-thiazol-4-yl)-2H,4H,5H,6H,7H-pyrazolo[4,3-c]pyridine-5-carbonyl]-1H-indole], the EC50 in the series with HBV is under 1 µM. This molecule also gave a cytotoxic concentration (CC50) at 6 days in series [1] of over 10 µM.

As to `O=C(c1cc2ccccc2[nH]1)N1CCc2[nH]nc(C(=O)N3CCCC(F)(F)C3)c2C1` [Example 187, 2-[3-(3,3-difluoropiperidine-1-carbonyl)-1H,4H,5H,6H,7H-pyrazolo[4,3-c]pyridine-5-carbonyl]-1H-indole], the 50% effective concentration (EC50) in the series on HBV was under 1 µM. In series [1], this molecule gave a CC50 at 6 days of over 10 µM.

Regarding `CN(C(=O)c1n[nH]c2c1CN(C(=O)c1cc3c(F)cc(F)cc3[nH]1)CC2)C1(CO)CC1` [Example 238, 5-(4,6-difluoro-1H-indole-2-carbonyl)-N-[1-(hydroxymethyl)cyclopropyl]-N-methyl-1H,4H,5H,6H,7H-pyrazolo[4,3-c]pyridine-3-carboxamide], the EC50 in the series with HBV is under 1 µM. Besides, the 50% cytotoxic concentration (CC50) at 6 days in series [1] was over 10 µM.

For the molecule `CCc1c(F)ccc2[nH]c(C(=O)N3CCc4n[nH]c(-c5cscn5)c4C3)cc12` [Example 25, 4-ethyl-5-fluoro-2-[3-(1,3-thiazol-4-yl)-2H,4H,5H,6H,7H-pyrazolo[4,3-c]pyridine-5-carbonyl]-1H-indole], the EC50 in the series on HBV was 1 to 25 µM. In series [1], this molecule had a cytotoxic concentration (CC50) at 6 days of over 10 µM.

Consider `O=C(c1cc2ccc(F)cc2[nH]1)N1CCc2n[nH]c(C3CCC3)c2C1` [Example 393, 2-{3-cyclobutyl-2H,4H,5H,6H,7H-pyrazolo[4,3-c]pyridine-5-carbonyl}-6-fluoro-1H-indole], for which the concentration for a half-maximal effect (EC50) in the series on HBV was under 1 µM. Besides, in series [1], the CC50 at 6 days is over 10 µM.

Regarding `O=C(c1cc2c(F)c(F)ccc2[nH]1)N1CCc2[nH]nc(C(=O)N3CCC(F)(F)C3)c2C1` [Example 231, 2-[3-(3,3-difluoropyrrolidine-1-carbonyl)-1H,4H,5H,6H,7H-pyrazolo[4,3-c]pyridine-5-carbonyl]-4,5-difluoro-1H-indole], the 50% effective concentration (EC50) in the series with HBV was under 1 µM. In series [1], this molecule registered a cytotoxic concentration (CC50) at 6 days of over 10 µM.

On to `O=C(c1cc2ccc(F)c(F)c2[nH]1)N1CCc2n[nH]c(C3CCC3)c2C1` [Example 389, 2-{3-cyclobutyl-2H,4H,5H,6H,7H-pyrazolo[4,3-c]pyridine-5-carbonyl}-6,7-difluoro-1H-indole], for which, in the series on HBV, the concentration giving a half-maximal response (EC50) was under 1 µM. The same molecule displayed a 50% cytotoxic concentration (CC50) at 6 days in series [1] of over 10 µM.

Turning to `CN(C(=O)c1[nH]nc2c1CN(C(=O)c1cc3ccccc3[nH]1)CC2)C1(c2ccno2)CC1` [Example 402, 5-(1H-indole-2-carbonyl)-N-methyl-N-[1-(1,2-oxazol-5-yl)cyclopropyl]-2H,4H,5H,6H,7H-pyrazolo[4,3-c]pyridine-3-carboxamide], the concentration for a half-maximal effect (EC50) in the series with HBV is under 1 µM. In series [1], this molecule returned a cytotoxic concentration (CC50) at 6 days of over 10 µM.

Consider `O=C(c1cc2c(Cl)cc(F)cc2[nH]1)N1CCc2[nH]nc(C(=O)N3CCCC34CC4)c2C1` [Example 215, 2-(3-{4-azaspiro[2.4]heptane-4-carbonyl}-1H,4H,5H,6H,7H-pyrazolo[4,3-c]pyridine-5-carbonyl)-4-chloro-6-fluoro-1H-indole], for which, in the series with HBV, the half-maximal effective concentration (EC50) was under 1 µM. The CC50 at 6 days in series [1] is over 10 µM.

Consider `CN(C(=O)c1n[nH]c2c1CN(C(=O)c1cc3ccccc3[nH]1)CC2)[C@@H]1CCCC[C@@H]1O` [Example 200, N-[(1R,2S)-2-hydroxycyclohexyl]-5-(1H-indole-2-carbonyl)-N-methyl-1H,4H,5H,6H,7H-pyrazolo[4,3-c]pyridine-3-carboxamide], for which, in the series with HBV, the EC50 was 1 to 25 µM. In series [1], the CC50 at 6 days is over 10 µM.

Regarding `O=C(c1cc2cccc(F)c2[nH]1)N1CCc2n[nH]c(C3CCC3)c2C1` [Example 392, 2-{3-cyclobutyl-2H,4H,5H,6H,7H-pyrazolo[4,3-c]pyridine-5-carbonyl}-7-fluoro-1H-indole], in the series with HBV, the 50% effective concentration (EC50) is under 1 µM. Further, the CC50 at 6 days in series [1] is over 10 µM.

On to `CN(C(=O)c1n[nH]c2c1CN(C(=O)c1cc3ccccc3[nH]1)CC2)C1(COC(=O)c2ccccc2)CC1` [Example 219, {1-[N-methyl 5-(1H-indole-2-carbonyl)-1H,4H,5H,6H,7H-pyrazolo[4,3-c]pyridine-3-amido]cyclopropyl}methyl benzoate], for which the EC50 with HBV was under 1 µM. The same molecule displayed a half-maximal cytotoxic concentration (CC50) at 6 days in series [1] of over 10 µM.

Consider `O=C(c1cc2cc(F)c(F)cc2[nH]1)N1CCc2n[nH]c(C3CCC3)c2C1` [Example 390, 2-{3-cyclobutyl-2H,4H,5H,6H,7H-pyrazolo[4,3-c]pyridine-5-carbonyl}-5,6-difluoro-1H-indole], for which the EC50 in the series on HBV is under 1 µM. Besides, the half-maximal cytotoxic concentration (CC50) at 6 days in series [1] is over 10 µM.

Values taken from patent US11236087B2, “Highly active pyrazolo-piperidine substituted indole-2-carboxamides active against the hepatitis B virus (HBV)” (AiCuris GmbH & Co. KG, priority 2017, dated 2022).
